{"source": "paper PMC7955893", "about": "(Journal of medicinal chemistry, 2019)", "key": {"NNMT [1]": {"target": "T1, NNMT (Homo sapiens, UniProt P40261)", "T1 sequence (P40261 1-264)": "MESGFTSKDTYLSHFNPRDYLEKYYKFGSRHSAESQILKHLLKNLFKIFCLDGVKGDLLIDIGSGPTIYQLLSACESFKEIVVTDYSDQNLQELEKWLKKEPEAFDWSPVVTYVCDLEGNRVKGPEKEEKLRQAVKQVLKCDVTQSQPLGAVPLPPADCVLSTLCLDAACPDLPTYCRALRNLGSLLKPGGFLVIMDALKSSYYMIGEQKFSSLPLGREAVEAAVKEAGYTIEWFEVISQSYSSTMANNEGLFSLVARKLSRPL", "assay": "Fluorescence-based continuous NNMT inhibition assay", "format": "biochemical", "conditions": "for NNMT inhibition (in words): qualitative SAR statement"}, "[2]": {"tested_on": "MNAM levels in U2OS cells", "assay": "MNAM measurement in U2OS cells by LC-MS/MS", "format": "cell-based, human", "conditions": "24 h incubation"}, "U2OS cells": {"tested_on": "U2OS cells", "assay": "CellTiter-Glo luminescent cell viability", "format": "cell-based, human", "conditions": "48 h, 100 μM dose"}, "NNMT [3]": {"target": "T1, NNMT", "assay": "Cellular thermal shift assay", "format": "binding", "conditions": "K562 cell lysate; various concentrations; heated at 57 °C"}, "Caco-2": {"tested_on": "Caco-2", "assay": "A-B permeability testing", "conditions": "Caco-2, pH 6.5/7.4"}}}
{"smiles": "NC(=O)c1ccccc1C#C[C@@H](CC[C@H](N)C(=O)O)C[C@H]1O[C@@H](n2cnc3c(N)ncnc32)[C@H](O)[C@@H]1O", "note": "[compound 28, (2S,5S)-2-amino-5-(((2R,3S,4R,5R)-5-(6-amino-9H-purin-9-yl)-3,4-dihydroxytetrahydrofuran-2-yl)methyl)-7-(2-carbamoylphenyl)hept-6-ynoic acid]", "values": [{"measurement": "NNMT inhibition (in words)", "setting": "NNMT [1]", "value": "much less potent than NS1"}]}
{"smiles": "NCCC[C@H](C#Cc1cccc(C(N)=O)c1)C[C@H]1O[C@@H](n2cnc3c(N)ncnc32)[C@H](O)[C@@H]1O", "note": "[compound 21, 3-((S)-6-amino-3-(((2R,3S,4R,5R)-5-(6-amino-9H-purin-9-yl)-3,4-dihydroxytetrahydrofuran-2-yl)methyl)hex-1-yn-1-yl)benzamide]", "values": [{"measurement": "ability to decrease MNAM levels in U2OS cells (in words)", "setting": "[2]", "value": "the effects were modest"}, {"measurement": "cytotoxicity to U2OS cells (in words)", "setting": "U2OS cells", "value": "None of the compounds tested (NS1, 21, 23, 24, 25) were toxic"}]}
{"smiles": "NC(=O)c1cccc(C#C[C@@H](CCC[C@H](N)C(=O)O)C[C@H]2O[C@@H](n3cnc4c(N)ncnc43)[C@H](O)[C@@H]2O)c1", "note": "[compound 26, (2S,6S)-2-amino-6-(((2R,3S,4R,5R)-5-(6-amino-9H-purin-9-yl)-3,4-dihydroxytetrahydrofuran-2-yl)methyl)-8-(3-carbamoylphenyl)oct-7-ynoic acid]", "values": [{"measurement": "fold increase in inhibitory activity in terms of Ki compared to NS1", "setting": "NNMT [1]; relative to NS1", "value": "~ 2 fold"}]}
{"smiles": "NC(=O)c1cccc(C#CCC[C@H]2O[C@@H](n3cnc4c(N)ncnc43)[C@H](O)[C@@H]2O)c1", "note": "[compound 17, 3-(4-((2R,3S,4R,5R)-5-(6-amino-9H-purin-9-yl)-3,4-dihydroxytetrahydrofuran-2-yl)but-1-yn-1-yl)benzamide]", "values": [{"measurement": "fold weaker inhibitor than NS1 in terms of Ki", "setting": "NNMT [1]; relative to NS1", "value": "~ 500 fold"}]}
{"smiles": "Nc1ncnc2c1ncn2[C@@H]1O[C@H](C[C@@H](C#Cc2ccc3c(c2)C(=O)NCC3)CC[C@H](N)C(=O)O)[C@@H](O)[C@H]1O", "note": "[compound 34, (2S,5S)-2-amino-5-(((2R,3S,4R,5R)-5-(6-amino-9H-purin-9-yl)-3,4-dihydroxytetrahydrofuran-2-yl)methyl)-7-(1-oxo-1,2,3,4-tetrahydroisoquinolin-7-yl)hept-6-ynoic acid]", "values": [{"measurement": "NNMT inhibition (in words)", "setting": "NNMT [1]", "value": "moderate NNMT inhibitors"}]}
{"smiles": "NC(=O)c1cccc(CC[C@@H](CC[C@H](N)C(=O)O)C[C@H]2O[C@@H](n3cnc4c(N)ncnc43)[C@H](O)[C@@H]2O)c1", "note": "[compound 15, (2S,5S)-2-amino-5-(((2R,3S,4R,5R)-5-(6-amino-9H-purin-9-yl)-3,4-dihydroxytetrahydrofuran-2-yl)methyl)-7-(3-carbamoylphenyl)heptanoic acid]", "values": [{"measurement": "fold more potent than MS2756 in terms of Ki", "setting": "NNMT [1]; relative to MS2756", "value": "approximately 200 fold"}, {"measurement": "fold weaker inhibitor than NS1 in terms of Ki", "setting": "NNMT [1]; relative to NS1", "value": "~10", "unit": "fold"}]}
{"smiles": "Nc1ncnc2c1ncn2[C@@H]1O[C@H](C[C@@H](C#Cc2ccc3c(c2)C(=O)NC3)CC[C@H](N)C(=O)O)[C@@H](O)[C@H]1O", "note": "[compound 35, (2S,5S)-2-amino-5-(((2R,3S,4R,5R)-5-(6-amino-9H-purin-9-yl)-3,4-dihydroxytetrahydrofuran-2-yl)methyl)-7-(3-oxoisoindolin-5-yl)hept-6-ynoic acid]", "values": [{"measurement": "NNMT inhibition (in words)", "setting": "NNMT [1]", "value": "moderate NNMT inhibitors"}]}
{"smiles": "NC(=O)c1cccc(C#C[C@@H](CC[C@H](N)C(=O)O)C[C@H]2O[C@@H](n3cnc4c(N)ncnc43)[C@H](O)[C@@H]2O)c1", "note": "[NS1, (2S,5S)-2-amino-5-(((2R,3S,4R,5R)-5-(6-amino-9H-purin-9-yl)-3,4-dihydroxytetrahydrofuran-2-yl)methyl)-7-(3-carbamoylphenyl)hept-6-ynoic acid]", "values": [{"measurement": "isothermal dose response CETSA, stabilization of NNMT (in words)", "setting": "NNMT [3]", "value": "dose-dependent manner"}, {"measurement": "ability to decrease MNAM levels in U2OS cells (in words)", "setting": "[2]", "value": "the effects were modest"}, {"measurement": "A-B permeability (in words)", "setting": "Caco-2", "value": "limited permeability"}, {"measurement": "cytotoxicity to U2OS cells (in words)", "setting": "U2OS cells", "value": "None of the compounds tested (NS1, 21, 23, 24, 25) were toxic"}]}
{"smiles": "NC(=O)c1cccc(C#C[C@@H]2C[C@H]2[C@H]2O[C@@H](n3cnc4c(N)ncnc43)[C@H](O)[C@@H]2O)c1", "note": "[compound 18, 3-(((1R,2R)-2-((2R,3S,4R,5R)-5-(6-amino-9H-purin-9-yl)-3,4-dihydroxytetrahydrofuran-2-yl)cyclopropyl)ethynyl)benzamide]", "values": [{"measurement": "NNMT inhibition (in words)", "setting": "NNMT [1]", "value": "proved detrimental"}]}
{"smiles": "C#C[C@@H](CC[C@H](N)C(=O)O)C[C@H]1O[C@@H](n2cnc3c(N)ncnc32)[C@H](O)[C@@H]1O", "note": "[compound 12, (2S,5S)-2-amino-5-(((2R,3S,4R,5R)-5-(6-amino-9H-purin-9-yl)-3,4-dihydroxytetrahydrofuran-2-yl)methyl)hept-6-ynoic acid]", "values": [{"measurement": "NNMT inhibition (in words)", "setting": "NNMT [1]", "value": "equally poor NNMT inhibitors"}]}
{"smiles": "CO[C@@H]1O[C@H](C[C@@H](C#Cc2cccc(C(N)=O)c2)CC[C@H](N)C(=O)O)[C@@H](O)[C@H]1O", "note": "[compound 19, (2S,5S)-2-amino-7-(3-carbamoylphenyl)-5-(((2R,3S,4R,5R)-3,4-dihydroxy-5-methoxytetrahydrofuran-2-yl)methyl)hept-6-ynoic acid]", "values": [{"measurement": "NNMT inhibition (in words)", "setting": "NNMT [1]", "value": "completely abrogated NNMT inhibition"}]}
{"smiles": "COC(=O)[C@@H](N)CC[C@H](C#Cc1cccc(C(N)=O)c1)C[C@H]1O[C@@H](n2cnc3c(N)ncnc32)[C@H](O)[C@@H]1O", "note": "[compound 23, Methyl (2S,5S)-2-amino-5-(((2R,3S,4R,5R)-5-(6-amino-9H-purin-9-yl)-3,4-dihydroxytetrahydrofuran-2-yl)methyl)-7-(3-carbamoylphenyl)hept-6-ynoate]", "values": [{"measurement": "ability to decrease MNAM levels in U2OS cells (in words)", "setting": "[2]", "value": "the effects were modest"}, {"measurement": "cytotoxicity to U2OS cells (in words)", "setting": "U2OS cells", "value": "None of the compounds tested (NS1, 21, 23, 24, 25) were toxic"}]}
{"smiles": "NC(=O)c1cccc(C#C[C@@H](CCCC(=O)O)C[C@H]2O[C@@H](n3cnc4c(N)ncnc43)[C@H](O)[C@@H]2O)c1", "note": "[compound 20, (S)-5-(((2R,3S,4R,5R)-5-(6-amino-9H-purin-9-yl)-3,4-dihydroxytetrahydrofuran-2-yl)methyl)-7-(3-carbamoylphenyl)hept-6-ynoic acid]", "values": [{"measurement": "NNMT inhibition (in words)", "setting": "NNMT [1]", "value": "poor NNMT inhibitor"}]}
{"smiles": "Nc1ncnc2c1ncn2[C@@H]1O[C@H](CCCC[C@H](N)C(=O)O)[C@@H](O)[C@H]1O", "note": "[compound 11, (S)-2-amino-6-((2R,3S,4R,5R)-5-(6-amino-9H-purin-9-yl)-3,4-dihydroxytetrahydrofuran-2-yl)hexanoic acid]", "values": [{"measurement": "NNMT inhibition (in words)", "setting": "NNMT [1]", "value": "poor NNMT inhibitor"}]}
{"smiles": "NC(=O)c1ccc(C#C[C@@H](CC[C@H](N)C(=O)O)C[C@H]2O[C@@H](n3cnc4c(N)ncnc43)[C@H](O)[C@@H]2O)cc1", "note": "[compound 27, (2S,5S)-2-amino-5-(((2R,3S,4R,5R)-5-(6-amino-9H-purin-9-yl)-3,4-dihydroxytetrahydrofuran-2-yl)methyl)-7-(4-carbamoylphenyl)hept-6-ynoic acid]", "values": [{"measurement": "NNMT inhibition (in words)", "setting": "NNMT [1]", "value": "much less potent than NS1"}]}
{"smiles": "NC(=O)c1cccc(CC[C@H](CC[C@H](N)C(=O)O)C[C@H]2O[C@@H](n3cnc4c(N)ncnc43)[C@H](O)[C@@H]2O)c1", "note": "[compound 16, (2S,5R)-2-amino-5-(((2R,3S,4R,5R)-5-(6-amino-9H-purin-9-yl)-3,4-dihydroxytetrahydrofuran-2-yl)methyl)-7-(3-carbamoylphenyl)heptanoic acid]", "values": [{"measurement": "fold difference in Ki between NS1-alkane and its C6’ epimer", "setting": "NNMT [1]; relative to NS1-alkane (15)", "value": "~ 20 fold"}]}
{"smiles": "NC(=O)c1cccc(C#C[C@@H](CC[C@H](N)C(N)=O)C[C@H]2O[C@@H](n3cnc4c(N)ncnc43)[C@H](O)[C@@H]2O)c1", "note": "[compound 24, 3-((3S,6S)-6,7-diamino-3-(((2R,3S,4R,5R)-5-(6-amino-9H-purin-9-yl)-3,4-dihydroxytetrahydrofuran-2-yl)methyl)-7-oxohept-1-yn-1-yl)benzamide]", "values": [{"measurement": "ability to decrease MNAM levels in U2OS cells (in words)", "setting": "[2]", "value": "the effects were modest"}, {"measurement": "cytotoxicity to U2OS cells (in words)", "setting": "U2OS cells", "value": "None of the compounds tested (NS1, 21, 23, 24, 25) were toxic"}]}
{"smiles": "Nc1ncnc2c1ncn2[C@@H]1O[C@H](C[C@@H](C#Cc2cccc(S(N)(=O)=O)c2)CC[C@H](N)C(=O)O)[C@@H](O)[C@H]1O", "note": "[compound 29, (2S,5S)-2-amino-5-(((2R,3S,4R,5R)-5-(6-amino-9H-purin-9-yl)-3,4-dihydroxytetrahydrofuran-2-yl)methyl)-7-(3-sulfamoylphenyl)hept-6-ynoic acid]", "values": [{"measurement": "NNMT inhibition (in words)", "setting": "NNMT [1]", "value": "much less potent than NS1"}]}
{"smiles": "NC(=O)NCC[C@H](C#Cc1cccc(C(N)=O)c1)C[C@H]1O[C@@H](n2cnc3c(N)ncnc32)[C@H](O)[C@@H]1O", "note": "[compound 25, 3-((S)-3-(((2R,3S,4R,5R)-5-(6-amino-9H-purin-9-yl)-3,4-dihydroxytetrahydrofuran-2-yl)methyl)-5-ureidopent-1-yn-1-yl)benzamide]", "values": [{"measurement": "isothermal dose response CETSA, stabilization of NNMT (in words)", "setting": "NNMT [3]", "value": "dose-dependent manner"}, {"measurement": "ability to decrease MNAM levels in U2OS cells (in words)", "setting": "[2]", "value": "the effects were modest"}, {"measurement": "cytotoxicity to U2OS cells (in words)", "setting": "U2OS cells", "value": "None of the compounds tested (NS1, 21, 23, 24, 25) were toxic"}]}
{"smiles": "Nc1ncnc2c1ncn2[C@@H]1O[C@H](C[C@@H](C#Cc2ccccc2)CC[C@H](N)C(=O)O)[C@@H](O)[C@H]1O", "note": "[compound 13, (2S,5S)-2-amino-5-(((2R,3S,4R,5R)-5-(6-amino-9H-purin-9-yl)-3,4-dihydroxytetrahydrofuran-2-yl)methyl)-7-phenylhept-6-ynoic acid]", "values": [{"measurement": "NNMT inhibition (in words)", "setting": "NNMT [1]", "value": "equally poor NNMT inhibitors"}]}
